{
  "source": "patent US20220233624A9",
  "about": "“ANTI-CANCER AND ANTI-PROLIFERATIVE COMPOSITIONS, AND METHODS FOR THEIR USE IN TREATING CANCER” (Natreon, Inc., priority 2020, published 2022)",
  "format_in_all_cases": "cell-based",
  "key": {"[1]": {"system": "Histiocytic lymphoma (U-937) cells", "test": "Anti-proliferation assay on histiocytic lymphoma cells", "conditions": "Homo sapiens", "description": "Cells were plated at 1.25 k/well in 384 well plates. […] Anti-proliferative assays were generally performed as described in Example I above, in triplicate, with detection reagent CellTiterGlo. Tables 98-99 show data for controls for assays on histiocytic lymphoma (U-937) cells, and that the data passed quality control parameters. Tables 101-102 show data for controls for assays on pancreatic cancer (Panc-1) cells, and that the data passed quality control parameters. […] The assay is generally as described in Example I."}, "[2]": {"system": "Non-small cell lung cancer cells (cell line NCI-H-358)", "test": "Anti-proliferation assay on non-small cell lung cancer cells", "conditions": "Homo sapiens, NCI-H358", "description": "Anti-proliferative and anti-cancer activity of extracts of this invention on non-small cell lung cancer cells and colon cancer cells were assessed generally as described in Example I and are discussed below. […] As noted throughout this application, the below data is intended to describe the present invention but not to be limiting.\nNon-small cell lung cancer cells (cell line NCI-H-358) and colon cancer cells (cell line HT-29) were plated in a 384-well plate in amounts of about 1.25 k cells/well. […] Wells with untreated cells and with plain media were also included as controls. Plates passed quality control parameters."}, "[3]": {"system": "SHP-77 (small cell lung cancer) cells", "test": "Anti-proliferation assay on small cell lung cancer cells", "conditions": "Homo sapiens, SHP77", "description": "SHP-77 (small cell lung cancer) cells were incubated for 72 hours with 100 ug/ml, 30 ug/ml, and 10 ug/ml each of AyuFlex®, Capros® Phyto-BGS®, PrimaVie®, Sensoril®, Ayuric®, and Crominex®, and tested according to the anti-proliferative assay described above. Cells were plated at 1.25 k/well in 384 well plates. Standard of care drug docetaxel was also tested at a 10 uM concentration as a control. Anti-proliferative assays were generally performed as discussed above, in triplicate, with detection reagent CellTiterGlo® as discussed for instance in Example I. Tables 77-79 show data for controls and that the data passed quality control parameters."}, "[4]": {"conditions": "10 uM, 72 h, read-out: % Inhibition Average (SD)"}, "[5]": {"conditions": "10 uM, 72 h, read-out: % Inhibition n1"}, "[6]": {"conditions": "10 uM, 72 h, read-out: % Inhibition n2"}, "[7]": {"conditions": "10 uM, 72 h, read-out: % Inhibition n3"}, "[8]": {"conditions": "drug 10 uM, read-out: inhibition"}},
  "note": "Where two headings read alike, the source gives them in different places.",
  "data": [
    {"smiles": "COc1cccc2c1C(=O)c1c(O)c3c(c(O)c1C2=O)C[C@@](O)(C(=O)CO)C[C@@H]3O[C@H]1C[C@H](N)[C@H](O)[C@H](C)O1", "note": "[Doxorubicin, doxorubicin]", "values": [
      {"measurement": "inhibition at 10 µM", "setting": "[1]; [4]", "value": 100, "unit": "%"},
      {"measurement": "inhibition at 10 µM", "setting": "[1]; [5]", "value": 100, "unit": "%"},
      {"measurement": "inhibition at 10 µM", "setting": "[1]; [6]", "value": 100, "unit": "%"},
      {"measurement": "inhibition at 10 µM", "setting": "[1]; [7]", "value": 100, "unit": "%"},
      {"measurement": "inhibition at 10 µM", "setting": "[1]; [8]", "value": 100, "unit": "%"},
      {"measurement": "inhibition at 10 µM", "setting": "[2]; drug 10 uM, read-out: inhibition of proliferation", "value": 78, "unit": "%"},
      {"measurement": "inhibition at 10 µM", "setting": "[2]; plate control @ 10 uM, read-out: % Inhibition Average (SD)", "value": 78, "unit": "%"},
      {"measurement": "inhibition at 10 µM", "setting": "[2]; plate control @ 10 uM, read-out: % Inhibition n1", "value": 79, "unit": "%"},
      {"measurement": "inhibition at 10 µM", "setting": "[2]; plate control @ 10 uM, read-out: % Inhibition n2", "value": 77, "unit": "%"},
      {"measurement": "inhibition at 10 µM", "setting": "[2]; plate control @ 10 uM, read-out: % Inhibition n3", "value": 77, "unit": "%"},
      {"measurement": "inhibition at 10 µM", "setting": "[3]; [4]", "value": 93, "unit": "%"},
      {"measurement": "inhibition at 10 µM", "setting": "[3]; [5]", "value": 94, "unit": "%"},
      {"measurement": "inhibition at 10 µM", "setting": "[3]; [6]", "value": 93, "unit": "%"},
      {"measurement": "inhibition at 10 µM", "setting": "[3]; [7]", "value": 93, "unit": "%"},
      {"measurement": "inhibition at 10 µM", "setting": "[3]; [8]", "value": 93, "unit": "%"}
    ]}
  ]
}
